Data from patent publication US20200216441A1, “PESTICIDALLY ACTIVE HETEROCYCLIC DERIVATIVES WITH SULFUR CONTAINING SUBSTITUENTS” (SYNGENTA PARTICIPATIONS AG, priority 2017, published 2020).

How the values were obtained:
[1] = tested on: Myzus persicae (Green Peach Aphid); test: whole plant or invertebrate; assay type: in vivo; settings: 144 h, test rate of 24 ppm, systemic, roots of infested pea seedlings in test solution, 6 days
[2] = tested on: Spodoptera littoralis (Egyptian Cotton Leaf Worm); test: whole plant or invertebrate; settings: in Gossypium barbadense, foliar, 72 h, read-out: control (mortality, anti-feeding effect, growth inhibition)
[3] = tested on: Myzus persicae (Green Peach Aphid); test: whole plant or invertebrate; settings: foliar, 144 h
[4] = tested on: Plutella xylostella (Diamond Back Moth); test: whole plant or invertebrate; assay type: in vivo; settings: 120 h, application rate of 200 ppm, L2 larvae on treated artificial diet, 5 days after infestation, read-out: effect in at least one of the two categories (mortality or growth inhibition)
[5] = tested on: Diabrotica Balteata (Corn Root Worm); test: Diabrotica balteata (Corn Root Worm); settings: in Zea mays, 96 h, read-out: effect in at least one of the two categories (mortality or growth inhibition)
[6] = tested on: Bemisia tabaci (Cotton White Fly); settings: in Gossypium hirsutum, foliar, 144 h
[7] = tested on: Euschistus heros (Neotropical Brown Stink Bug); test: whole plant or invertebrate; assay type: in vivo; settings: 120 h, application rate of 200 ppm, N2 nymphs on sprayed soybean leaves, 5 days after infestation, read-out: effect in at least one of the two categories (mortality or growth inhibition)

CCOc1cnc(-c2nc3cc(C(F)(F)F)ncc3n2C)c(S(=O)(=O)CC)c1 [Compound P12, 2-(5-ethoxy-3-ethylsulfonyl-2-pyridyl)-3-methyl-6-(trifluoromethyl)imidazo[4,5-c]pyridine]
≥ 80%: mortality at 24 ppm [1] | mortality at 200 ppm [2] | mortality at 200 ppm [3] | percent effect (mortality or growth inhibition) at 200 ppm [4] | mortality at 200 ppm [5]

CCS(=O)(=O)c1cc(OCCCSC)cnc1-c1nc2cc(C(F)(F)F)ncc2n1C [Compound P56, 2-[3-ethylsulfonyl-5-(3-methylsulfanylpropoxy)-2-pyridyl]-3-methyl-6-(trifluoromethyl)imidazo[4,5-c]pyridine]
≥ 80%: mortality at 24 ppm [1] | mortality at 200 ppm [6] | percent effect (mortality or growth inhibition) at 200 ppm [7] | mortality at 200 ppm [3] | mortality at 200 ppm [5]

CCS(=O)(=O)c1cc(OCSC)ccc1-c1nc2cc(C(F)(F)F)ncc2n1C [Compound P106, 2-[2-ethylsulfonyl-4-(methylsulfanylmethoxy)phenyl]-3-methyl-6-(trifluoromethyl)imidazo[4,5-c]pyridine]
≥ 80%: mortality at 24 ppm [1] | mortality at 200 ppm [6] | percent effect (mortality or growth inhibition) at 200 ppm [7] | mortality at 200 ppm [3] | mortality at 200 ppm [5]

CCS(=O)(=O)c1cc(OC(C)(C)CSC)cnc1-c1nc2cc(C(F)(F)F)ncc2n1C [Compound P50, 2-[5-(1,1-dimethyl-2-methylsulfanyl-ethoxy)-3-ethylsulfonyl-2-pyridyl]-3-methyl-6-(trifluoromethyl)imidazo[4,5-c]pyridine]
≥ 80%: mortality at 24 ppm [1] | mortality at 200 ppm [6] | percent effect (mortality or growth inhibition) at 200 ppm [7] | mortality at 200 ppm [3] | percent effect (mortality or growth inhibition) at 200 ppm [4] | mortality at 200 ppm [5]

CCS(=O)(=O)c1cc(OC(C)(C)C(N)=O)cnc1-c1nc2cc(C(F)(F)F)ncc2n1C [Compound P89, 2-[[5-ethylsulfonyl-6-[3-methyl-6-(trifluoromethyl)imidazo[4,5-c]pyridin-2-yl]-3-pyridyl]oxy]-2-methyl-propanamide]
≥ 80%: mortality at 24 ppm [1] | mortality at 200 ppm [6] | percent effect (mortality or growth inhibition) at 200 ppm [7] | mortality at 200 ppm [3] | percent effect (mortality or growth inhibition) at 200 ppm [4] | mortality at 200 ppm [5]

CCC(C#N)(CC)Oc1cnc(-c2nc3cc(C(F)(F)F)ncc3n2C)c(S(=O)(=O)CC)c1 [Compound P44, 2-ethyl-2-[[5-ethylsulfonyl-6-[3-methyl-6-(trifluoromethyl)imidazo[4,5-c]pyridin-2-yl]-3-pyridyl]oxy]butanenitrile]
≥ 80%: mortality at 200 ppm [6] | percent effect (mortality or growth inhibition) at 200 ppm [7]

CCS(=O)(=O)c1cc(OCS(C)(=O)=O)cnc1-c1nc2cc(C(F)(F)F)ncc2n1C [Compound P9, 2-[3-ethylsulfonyl-5-(methylsulfonylmethoxy)-2-pyridyl]-3-methyl-6-(trifluoromethyl)imidazo[4,5-c]pyridine]
≥ 80%: mortality at 24 ppm [1] | mortality at 200 ppm [6] | percent effect (mortality or growth inhibition) at 200 ppm [7] | mortality at 200 ppm [3] | mortality at 200 ppm [5]

CCS(=O)(=O)c1cc(O[C@H]2C[C@@H](C#N)C2)cnc1-c1nc2cc(C(F)(F)F)ncc2n1C [Compound P46, 3-[[5-ethylsulfonyl-6-[3-methyl-6-(trifluoromethyl)imidazo[4,5-c]pyridin-2-yl]-3-pyridyl]oxy]cyclobutanecarbonitrile]
≥ 80%: mortality at 24 ppm [1] | mortality at 200 ppm [6] | percent effect (mortality or growth inhibition) at 200 ppm [7] | mortality at 200 ppm [3] | percent effect (mortality or growth inhibition) at 200 ppm [4] | mortality at 200 ppm [5]

CCS(=O)(=O)c1cc(OCC2CC2(F)F)cnc1-c1nc2cc(C(F)(F)F)ncc2n1C (centres unmarked) [Compound P67, 2-[5-[(2,2-difluorocyclopropyl)methoxy]-3-ethylsulfonyl-2-pyridyl]-3-methyl-6-(trifluoromethyl)imidazo[4,5-c]pyridine]
≥ 80%: mortality at 200 ppm [6] | percent effect (mortality or growth inhibition) at 200 ppm [7] | mortality at 200 ppm [2] | mortality at 200 ppm [3] | percent effect (mortality or growth inhibition) at 200 ppm [4] | mortality at 200 ppm [5]

CCSc1cc(OC(C)(C)C)cnc1-c1nc2cc(C(F)(F)F)ncc2n1C [Compound P3, 2-(5-tert-butoxy-3-ethylsulfanyl-2-pyridyl)-3-methyl-6-(trifluoromethyl)imidazo[4,5-c]pyridine]
≥ 80%: mortality at 200 ppm [6] | percent effect (mortality or growth inhibition) at 200 ppm [7] | mortality at 200 ppm [3] | percent effect (mortality or growth inhibition) at 200 ppm [4] | mortality at 200 ppm [5]

CCS(=O)(=O)c1cc(OCCF)cnc1-c1nc2cc(C(F)(F)F)ncc2n1C [Compound P31, 2-[3-ethylsulfonyl-5-(2-fluoroethoxy)-2-pyridyl]-3-methyl-6-(trifluoromethyl)imidazo[4,5-c]pyridine]
≥ 80%: mortality at 24 ppm [1] | percent effect (mortality or growth inhibition) at 200 ppm [7] | mortality at 200 ppm [2] | mortality at 200 ppm [3] | percent effect (mortality or growth inhibition) at 200 ppm [4] | mortality at 200 ppm [5]

CCS(=O)(=O)c1cc(OCC(F)F)ccc1-c1nc2cc(C(F)(F)F)ncc2n1C [Compound P107, 2-[4-(2,2-difluoroethoxy)-2-ethylsulfonyl-phenyl]-3-methyl-6-(trifluoromethyl)imidazo[4,5-c]pyridine]
≥ 80%: mortality at 24 ppm [1] | percent effect (mortality or growth inhibition) at 200 ppm [7] | mortality at 200 ppm [2] | mortality at 200 ppm [3] | percent effect (mortality or growth inhibition) at 200 ppm [4] | mortality at 200 ppm [5]

CCS(=O)(=O)c1cc(OCC(C)(C)C)cnc1-c1nc2cc(C(F)(F)F)ncc2n1C [Compound P26, 2-[5-(2,2-dimethylpropoxy)-3-ethylsulfonyl-2-pyridyl]-3-methyl-6-(trifluoromethyl)imidazo[4,5-c]pyridine]
≥ 80%: mortality at 200 ppm [6] | mortality at 200 ppm [2] | mortality at 200 ppm [3] | percent effect (mortality or growth inhibition) at 200 ppm [4] | mortality at 200 ppm [5]

CCS(=O)(=O)c1cc(OC(C)C)cnc1-c1nc2cc(SC(F)F)ncc2n1C [Compound P86, 6-(difluoromethylsulfanyl)-2-(3-ethylsulfonyl-5-isopropoxy-2-pyridyl)-3-methyl-imidazo[4,5-c]pyridine]
≥ 80%: mortality at 24 ppm [1] | percent effect (mortality or growth inhibition) at 200 ppm [7] | mortality at 200 ppm [2] | mortality at 200 ppm [3] | percent effect (mortality or growth inhibition) at 200 ppm [4] | mortality at 200 ppm [5]

CCS(=O)(=O)c1cc(OCCSC)cnc1-c1nc2cc(C(F)(F)F)ncc2n1C [Compound P11, 2-[3-ethylsulfonyl-5-(2-methylsulfanylethoxy)-2-pyridyl]-3-methyl-6-(trifluoromethyl)imidazo[4,5-c]pyridine]
≥ 80%: mortality at 24 ppm [1] | mortality at 200 ppm [6] | percent effect (mortality or growth inhibition) at 200 ppm [7] | mortality at 200 ppm [2] | mortality at 200 ppm [3]

CCS(=O)(=O)c1cc(OCOC)cnc1-c1nc2cc(C(F)(F)F)ncc2n1C [Compound P68, 2-[3-ethylsulfonyl-5-(methoxymethoxy)-2-pyridyl]-3-methyl-6-(trifluoromethyl)imidazo[4,5-c]pyridine]
≥ 80%: mortality at 24 ppm [1] | percent effect (mortality or growth inhibition) at 200 ppm [7] | mortality at 200 ppm [2] | mortality at 200 ppm [3] | percent effect (mortality or growth inhibition) at 200 ppm [4] | mortality at 200 ppm [5]

CCS(=O)(=O)c1cc(OC[Si](C)(C)C)cnc1-c1nc2cc(C(F)(F)F)ncc2n1C [Compound P61, [5-ethylsulfonyl-6-[3-methyl-6-(trifluoromethyl)imidazo[4,5-c]pyridin-2-yl]-3-pyridyl]oxymethyl-trimethyl-silane]
≥ 80%: mortality at 200 ppm [6] | mortality at 200 ppm [2] | mortality at 200 ppm [3] | mortality at 200 ppm [5]

CCS(=O)(=O)c1cc(OC(C)C#N)cnc1-c1nc2cc(C(F)(F)F)ncc2n1C (centres unmarked) [Compound P22, 2-[[5-ethylsulfonyl-6-[3-methyl-6-(trifluoromethyl)imidazo[4,5-c]pyridin-2-yl]-3-pyridyl]oxy]propanenitrile]
≥ 80%: mortality at 24 ppm [1] | percent effect (mortality or growth inhibition) at 200 ppm [7] | mortality at 200 ppm [2] | mortality at 200 ppm [3] | percent effect (mortality or growth inhibition) at 200 ppm [4] | mortality at 200 ppm [5]

CCS(=O)(=O)c1cc(OCS(C)(=O)=O)ccc1-c1nc2cc(C(F)(F)F)ncc2n1C [Compound P105, 2-[2-ethylsulfonyl-4-(methylsulfonylmethoxy)phenyl]-3-methyl-6-(trifluoromethyl)imidazo[4,5-c]pyridine]
≥ 80%: mortality at 24 ppm [1] | mortality at 200 ppm [6] | percent effect (mortality or growth inhibition) at 200 ppm [7] | mortality at 200 ppm [3] | mortality at 200 ppm [5]

CCS(=O)(=O)c1cc(OCCCS(C)(=O)=O)cnc1-c1nc2cc(C(F)(F)F)ncc2n1C [Compound P52, 2-[3-ethylsulfonyl-5-(3-methylsulfonylpropoxy)-2-pyridyl]-3-methyl-6-(trifluoromethyl)imidazo[4,5-c]pyridine]
≥ 80%: mortality at 24 ppm [1] | mortality at 200 ppm [6] | percent effect (mortality or growth inhibition) at 200 ppm [7] | mortality at 200 ppm [3]
